The inhibition is the share of the control response that was lost under treatment.

In data set [1] the test system is NO secretion from RAW cells. Kind of data set: Nitric Oxide (NO) test (Griess test) on supernatants of LPS-stimulated RAW cells. Format: cell-based, Murine. The note with it: for concentration effective in inhibiting NO secretion without affecting cells' viability / Cannabinoid NO: RAW cells 24 h; for % inhibition of NO secretion: vs vehicle. As to the method: • a. ⅔ of total final volume of warm water for injection (42° C.) was added to the dry mushroom powder. • b. The suspension was vortexed and centrifuged (4100 rpm, RT, 5 min). • c. The supernatant containing the water-soluble fraction was separated into a clean tube. • d. 5% of total final volume of EtOH was added to the pellet and vortexed to extract ethanol-soluble fractions. Water was added q.s. ad. final volume. • e. The suspension was vortexed and centrifuged. The resulting supernatant was combined and centrifuged again to remove debris, yielding a final concentration of 50 mg/ml. • f. The resulting solution was passed through a cell strainer (40-70 micron). • g. Two additional stocks were prepared in vehicle (5% EtOH in WFI): 10 mg/ml and 2 mg/ml. • h. All Test items/Vehicle were added to the cells at 4 μL into 96 μL medium, yielding final working concentrations of: 2 mg/ml, 0.4 mg/ml, and 0.08 (in 0.2% EtOH, 4% WFI). […] Cell Medium Formulations:
(§1) • a. Cells were harvested at 80% confluence, counted and re-suspend to final concentration of 1×10^6/ml in growth medium. • b. […] Cells were incubated (37±10 C, 5% CO2) for 18-24 hrs. • d. Growth medium was removed; […] medium and 4 μL Vehicle, Test Item, and Controls were added. • e. The content of all wells was mixed by pipetting up and down three times. • f. Plates were incubated for 2 h (37±1° C., 5% CO2). • g. LPS (10 μl, final concentration of 100 ng/ml LPS) was added to all wells. • h. The content of all wells was mixed by pipetting up and down three times. • i. Plates were incubated for 24±2 h (37±1° C., 5% CO2). • j. Medium was collected from the 96-microtiter plate: 50 μl for NO secretion assay and the rest was stored in −20° C. for cytokine secretion assay.
Cell Proliferation and Viability (XTT Assay) • a. XTT reaction solution was prepared. • b. 50 μl of the XTT reaction solution was added into each well. • c. Plates were incubated in a humidified atmosphere (e.g. 37° C., 5% CO2). • d. The plates were shaken gently to evenly distribute the dye in the wells. • e. The absorbance of the samples was measure against a background control as a blank with a spectrophotometer (ELISA reader) at a wavelength of 450 nm. • f. In order to measure reference absorbance (to measure non-specific readings), a wavelength of 620 nm was used to subtract from the 450 nm measurement. • g. […] Nitric Oxide (NO) Test (Griess Test) • a. The Sulfanilamide Solution and NED Solution were allowed to equilibrate to room temperature (15-30 minutes). • b. 1 ml of a 100 μM nitrite solution was prepared by diluting the provided 0.1M Nitrite Standard 1:1,000 in culture medium. • c. 2 columns (16 wells) were designate in the non-binding 96-well plate for the Nitrite Standard reference curve. 50 μl of assay medium were dispensed into the wells in rows B-H (FIG. 1). • d. 100 μl of the 100 μM nitrite solution was added to the remaining 2 wells in row A. serial twofold dilutions (50 μl/well) were performed immediately in duplicate down the plate to generate the Nitrite Standard reference curve (100, 50, 25, 12.5, 6.25, 3.13 and 1.56 μM), discarding 50 μl from the 1.56 μM set of wells • e. 50 μl of the Sulfanilamide Solution were dispensed to all experimental samples and wells containing the dilution series for the Nitrite Standard reference curve. • f. The plate was incubated 5-10 minutes at room temperature, protected from light. • g. 50 μl of the NED Solution was dispensed to all wells. • h. The plate was incubated 5-10 minutes at room temperature, protected from light. • i. Absorbance was measured within 30 minutes in a plate reader with a filter between 520 nm and 550 nm. • j.

Another data set concerns EGL-1 cells. Kind of data set: Viability assay (XTT) of EGL-1 cells. Format: cell-based, Human. The note with it: 72 hours; for % viability at the potent concentrations: CBD 40-100 μM, THC 100-375 μM. As to the method: (§2) • a. PANC-1 cells (Human Pancreatic Cancer cells) (American Type Culture Collection, Rockville, MD, USA). • b. EGL-1 cells (Human extrahepatic cholangio carcinoma) Cell Growth:
Growth medium for EGL-1 cells: RPMI-1640 medium supplemented with 10% Fetal Bovine Serum (FBS), 2 mM L-Glutamine, and 1% Penicillin-Streptomycin solution (PS).
Assay medium for EGL-1: Assay medium contained only 1% FBS in DMEM low glucose (1 g/L)
(§3) • a. Cells were harvest at 80% confluence, counted and re-suspend to final concentration of 75×10^3/ml (PANC-1) or 50×103 (EGL-1) in growth medium. • b. Panc-1 cell suspension was seeded in 96-well microtiter plate at 7500 cells/100 μl/well and EGL-1 cell suspension was seeded in 96-well microtiter plate at 5000 cells/l100p/well. • c. Cells were incubated (37±10 C, 5% CO2) for 18-24 hrs. • d. Growth medium was removed; 80 μL assay medium and 20 μL Vehicle, Test Item, and Controls were added. […] The content of all wells was mixed by pipetting up and down three times. • f. Plates were incubated for 72±2 h (37±1° C., 5% CO2). • g. The medium on all plates was replaced with 100 μl culture medium. XTT Assay • a. XTT reaction solution was prepared. • b. 50 μl of the XTT reaction solution was added into each well. • c. Plates were incubated in a humidified atmosphere (e.g. 37° C., 5% CO2). • d. The plates were shaken gently to evenly distribute the dye in the wells. • e. The absorbance of the samples was measure against a background control as a blank with a spectrophotometer (ELISA reader) at a wavelength of 450 nm. • f. In order to measure reference absorbance (to measure non-specific readings), a wavelength of 620 nm was used to subtract from the 450 nm measurement. • g. The idle absorbance of the cells was 0.5-1.5 in all wells.
For orientation: Tetrazolium dyes change colour on reduction, which living cells bring about.

The next data set deals with PANC-1 cells. Kind of data set: Viability assay (XTT) of PANC-1 cells. It counts as cell-based, Human. The note with it: 72 hours; for % viability at the potent concentrations: CBD 40-100 μM, THC 100-375 μM, no dose response. As to the method:
as §2
Growth medium for PANC-1/EGL-1 cells: Dulbecco's Modified Eagle Medium (DMEM) high glucose supplemented with 10% Fetal Bovine Serum (FBS), 2 mM L-Glutamine, and 1% Penicillin-Streptomycin solution (PS).
Assay medium for PANC-1: Assay medium contained only 1% FBS.
as §3

The test system of data set [2] is TNFα secretion from RAW cells. Kind of data set: TNFα secretion, Multiplex analysis of medium of LPS-stimulated RAW cells. It counts as cell-based, Murine. The note with it: CBD (15 μM), THC (20 μM). As to the method:
as §1
(§4) Cytokine Secretion • a. Reishi, Cordyceps M, Agaricus blazei, and Cordyceps Cs-4 were incubated with […] at 0.08-2 mg/ml for 24 hours. • b. Medium from cells was collected for Multiplex analysis (CCL3/MIP1α, IL-6, IL-1β, TNFα, IL-10 and IL-6) in duplicates. • c.
(§5) Cytokine Secretion • a. CBD (15 μM) and THC (20 μM) were incubated with […]. • b. Medium from cells was collected for Multiplex analysis (CCL3/MIP1α, IL-6, IL-1β, TNFα, IL-10 and IL-6) in duplicates. • c. […] IL-6 secretion: • i. […] TNFα secretion: • i.
(§6) Cytokine Secretion • a. […]

Data set [3] concerns IL-6 secretion from RAW cells. Kind of data set: IL-6 secretion, Multiplex analysis of medium of LPS-stimulated RAW cells. It counts as cell-based, Murine. The note with it: CBD (15 μM). As to the method: as §1, §4, §5, §6
A further data set deals with cancer cells. The note with it: D9-THC (4-10 µM); cited from earlier work.
Data set [4] relates to U373-MG (glioblastoma) cells. The note with it: D9-THC at 100-300 nM; cited from earlier work.
The subject of data set [5] is NCl-H292 (lung cancer) cells. The note with it: D9-THC at 100-300 nM; cited from earlier work.
Where [6] appears, read: Mus musculus, read-out: % inhibition of NO secretion.

In the case of `C=C(C)[C@@H]1CCC(C)=C[C@H]1c1c(O)cc(CCCCC)cc1O` [CBD, cannabidiol], in data set [1] (CBD 15 μM alone), the NO turned out to be 6.67 µM. Also, in data set [1] (setting [6]), the inhibition at 15 µM amounted to 40.2%. Moreover, in data set [1], the “concentration effective in inhibiting NO secretion without affecting cells' viability” value lay within 15 to 20 µM. For the same molecule, the “Cannabinoid NO” value in data set [1] (cannabinoid 15 μM) worked out at 11.8 µM; in data set [1] (cannabinoid 20 μM) it was 5.07 µM. The entries for the “% inhibition of NO secretion” value in data set [1] (cannabinoid 15 μM) and in data set [1] (cannabinoid 20 μM) were 38.6% and 73.6%, respectively. Further, the “concentration at which potent (viability)” value (“concentration … (viability)” below) with EGL-1 cells and with PANC-1 cells was 40 to 100 µM throughout. Also, the entries for the “% viability at the potent concentrations” value in the data set with EGL-1 cells and in the data set with PANC-1 cells were 15-30% and 35%, respectively. Besides, the “effect on TNFα secretion (in words)” value in data set [2] is recorded as “did not affect TNFα secretion”. In addition, the “effect on IL-6 secretion (in words)” value in data set [3] was “did not affect IL-6 secretion”.

In the case of `CCCCCc1cc(O)c2c(c1)OC(C)(C)[C@@H]1CCC(C)=C[C@@H]21` [THC, Δ^9-tetrahydrocannabinol], the inhibition at 20 µM in data set [1] (setting [6]) was 66.7%. Also, in data set [1], the “concentration effective in inhibiting NO secretion without affecting cells' viability” value was found to be 20 µM. For the same molecule, the NO in data set [1] (THC 20 μM alone) came to 3.72 µM. For the same molecule, in data set [1] (cannabinoid 20 μM), the “Cannabinoid NO” value is 8.77 µM and the “% inhibition of NO secretion” value turned out to be 54.4%. Moreover, in the data set with EGL-1 cells, the “concentration … (viability)” value fell in the range of 100 to 375 µM and the “% viability at the potent concentrations” value is recorded as 15%. Further, the “number of apoptotic cells” value in the data set on cancer cells is given as 30-80%. In the data set on PANC-1 cells, the “concentration … (viability)” value was 100 to 375 µM and the “% viability at the potent concentrations” value turned out to be 35%. Also, the “effect on TNFα secretion (in words)” value in data set [2] is “did not affect TNFα secretion”. Further, the “increase in the proliferation rate” value in data set [4] was 2 fold. Also, in data set [5], the “increase in the proliferation rate” value is recorded as 1.2 fold.

The values are drawn from patent US12453750B2, “Fixed dose combination of cannabinoids and medical mushrooms for prevention and treatment of cancer, inflammatory or immune-mediated inflammatory diseases” (priority 2019, dated 2025).
